Assay results as given in publication PMC5214259, “Identification of Guanosine 5′-diphosphate as Potential Iron Mobilizer: Preventing the Hepcidin-Ferroportin Interaction and Modulating the Interleukin-6/Stat-3 Pathway” (Scientific Reports, 2017).

Target: T1, hepcidin (Homo sapiens, UniProt P81172)
T1 construct: gene HAMP; hepcidin-25 (25 amino acid peptide hormone)
T1 sequence (P81172 60-84 limits assumed): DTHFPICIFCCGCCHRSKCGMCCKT
Assay: UV-visible absorption titration (Kd); thermal shift assay (SYPRO orange, Tm […] to […] °C with equimolar GDP)
Type: binding

Nc1nc2c(ncn2[C@@H]2O[C@H](COP(=O)(O)OP(=O)(O)O)[C@@H](O)[C@H]2O)c(=O)[nH]1 [ZINC08215481, guanosine 5′-diphosphate] gave a Kd of 5.88 µM.
